Key:
[1] = test system: Mcl-1, phospho-Rb (Ser807/811), PARP cleavage; test: pharmacodynamic Western blot on patients' PBMC; type: in vivo, human
Procedure: For Western blot analysis, PB mononuclear cells (PBMC) were isolated by gradient centrifugation using lymphocyte separation medium (LSM) (Mediatech Inc., Manassas, VA, USA), and protein extracts were prepared and analyzed for the expression of Mcl-1, phospho-Rb (Ser807/811), and PARP cleavage as described below.
For Western blot analysis, leukemia cell pellets (primary leukemia cells, HL-60, MOLT-4, K562) were washed with PBS and lysed with RIPA buffer (Sigma-Aldrich, St. Louis, MO, USA) supplemented with Complete Mini™ protease inhibitor and PHOStop™ phosphatase inhibitors (Roche). Equal amounts of proteins up to 25 μg were separated on 4–12 % NuPAGE precast gels in 1X MOPS or 1X MES buffer (Invitrogen) and electro-blotted to PVDF membranes (Millipore, Billerica, MA, USA). The membranes were blocked with 5 % dry milk in 1X TBS/0.1 % Tween 20 for at least 1 h at room temperature. Blots were incubated with primary antibody (Ab) overnight at 4 °C, washed 3 times in TBS/0.1 % Tween 20, and then incubated with secondary Ab for 1 h at room temperature. Blots were washed three times, and the signal was detected with Amersham™ ECL™ detection systems (GE Healthcare, Pittsburgh, PA, USA). The following primary Abs were used: mouse anti-PARP (BD Pharmingen), rabbit anti-phospho-Rb (Ser807/811) and rabbit anti-Mcl-1 (both from Santa Cruz, Santa Cruz, CA, USA), rabbit anti-caspase 9 p35 and anti-caspase 3 (both from Cell Signaling, Danvers, MA, USA), and mouse anti-β-actin (Sigma-Aldrich). […] Secondary horseradish peroxidase-conjugated anti-mouse or anti-rabbit Abs were from Cell Signaling (Beverly, MA, USA). The Western blot signals were measured by densitometry using ImageJ 1.45I software (NIH, Bethesda, USA).

[2] = test system: primary AML cells (AML 08); test: Annexin V/PI apoptosis assay, primary AML cells; type: cell-based, human; settings: 2, 20, and 200 nM
Procedure: Primary leukemia cells for in vitro studies were isolated from BM or PB obtained from AML or ALL patients enrolled on a separate University of Maryland, Baltimore, IRB-approved protocol for tissue collection and not treated on this clinical study. The cells were isolated by gradient centrifugation using LSM (Mediatech) according to the manufacturer’s protocol. Cells were used either fresh or after viable freezing (FBS/10 % DMSO). Primary leukemia cells were cultured in RPMI 1640 (Invitrogen, Grand Island, NY, USA) supplemented with 15 % heat-inactivated FBS (HyClone Laboratories Inc., Red Bank, NJ, USA) and 200 mM L-Glutamine (Invitrogen). Leukemia cell lines HL-60 (AML), MOLT-4 (T cell ALL), and K562 (chronic myelogenous leukemia [CML] in erythroid blast transformation) were purchased from American Type Culture Collection (ATCC, Manassas, VA, USA) and cultured in RPMI 1640 (Invitrogen) supplemented with 10 % heat-inactivated FBS (HyClone Laboratories Inc.) and 200 mM L-Glutamine (Invitrogen).

[3] = test system: PARP, Mcl-1, p-Rb in primary leukemia samples; test: Western blot, primary leukemia cells in vitro; type: cell-based, human; settings: 6-h exposure, ≥20 nM; more prominent at 200 nM and 24 h
Procedure: Primary leukemia cells for in vitro studies were isolated from BM or PB obtained from AML or ALL patients enrolled on a separate University of Maryland, Baltimore, IRB-approved protocol for tissue collection and not treated on this clinical study. The cells were isolated by gradient centrifugation using LSM (Mediatech) according to the manufacturer’s protocol. Cells were used either fresh or after viable freezing (FBS/10 % DMSO). Primary leukemia cells were cultured in RPMI 1640 (Invitrogen, Grand Island, NY, USA) supplemented with 15 % heat-inactivated FBS (HyClone Laboratories Inc., Red Bank, NJ, USA) and 200 mM L-Glutamine (Invitrogen). […]
For Western blot analysis, leukemia cell pellets (primary leukemia cells, HL-60, MOLT-4, K562) were washed with PBS and lysed with RIPA buffer (Sigma-Aldrich, St. Louis, MO, USA) supplemented with Complete Mini™ protease inhibitor and PHOStop™ phosphatase inhibitors (Roche). […] Blots were washed three times, and the signal was detected with Amersham™ ECL™ detection systems (GE Healthcare, Pittsburgh, PA, USA). […] The Western blot signals were measured by densitometry using ImageJ 1.45I software (NIH, Bethesda, USA).

CCc1cnn2c(NCc3ccc[n+]([O-])c3)cc(N3CCCC[C@H]3CCO)nc12 [Dinaciclib]
down-regulation of Mcl-1 ([1]; PBMC 4 h after end of infusion, 4 specimens): 34–76%
PARP cleavage ([1]; PBMC 4 h post-treatment): Induction of PARP cleavage was also observed at 4 h
Mcl-1 expression ([1]; PBMC 4 h post-treatment, 1 AML and 3 ALL patients): decrease in Mcl-1 was seen in all specimens
Mcl-1 expression ([1]; PBMC 24 h post-treatment): returned to baseline by 24 h
p-Rb (Ser807/811) ([1]; PBMC, 2 patients had almost undetectable baseline p-Rb): Decline in p-Rb was observed in 1 patient
apoptosis (AnnexinV/PI flow cytometry) [2]: induced apoptosis in primary AML cells (AML 08) in a time- and concentration-dependent manner
Mcl-1 expression and PARP cleavage [3]: down-regulation of Mcl-1 and induction of PARP cleavage were observed in all 5 primary leukemia samples

Source: publication PMC3784060 (Cancer Chemotherapy and Pharmacology, 2013)
